“Also recorded” adds a separate entry of the source.
Experiments:
[1] = biological target: chymotrypsin-like activity of purified 20S proteasome (UniProt Q9P992); assay type: biochemical
Procedure: FIG. 8. […] A). […] Initially, 0.5 μg of purified 20S proteasome is incubated with 20 μM of a fluorogenic peptide substrate, Suc-Leu-Leu-Val-Tyr-AMC, for 30 min at 37° C. in 100 μl of assay buffer (20 mM Tris-HCl, pH 8.0) with various concentrations of tannic acid. After incubation, the reaction mixture is diluted to 200 μl with the assay buffer, followed by measurement of the hydrolyzed 7-amido-4-methyl-coumarin (AMC) groups using a fluorometer with an excitation filter of 380 nm and an emission filter of 460 nm. B). […] Tannic acid (0.3 μg/ml) and Glucose (180 μg/ml) are used in the proteasome activity assay as described above. C). […] Purified calpain I (3 μg) protein is incubated with 40 μM of a fluorogenic peptide substrate, Suc-Leu-Tyr-AMC, for 30 min at 37° C. in 100 μl of assay buffer (50 mM Tris-HCl, pH 7.5, containing 50 mM NaCl, 1 mM EDTA, 1 mM EGTA, 5 mM β-Mercaptoethanol, 5 mM CaCl2, and 0.1% CHAPS) in the absence (control) or presence of 5 μg/ml of tannic acid or 0.18 μg/ml of calpeptin (calpain inhibitor).
Inhibition of the proteasome activity in vitro by tea polyphenols—To measure the 20S proteasome chymotrypsin-like activity, 0.5 μg of a purified 20S proteasome (Calbiochem) is incubated with 20 μM of a fluorogenic peptide substrate, Suc-Leu-Leu-Val-Tyr-AMC (Calbiochem), for 30 min at 37° C. in 100 μl of assay buffer (20 mM Tris-HCl, pH 8.0), with or without tea polyphenols (purity >95%; Sigma) or tea extract. After incubation, the reaction mixture is diluted to 200 μl with the assay buffer, followed by measurement of the hydrolyzed 7-amido-4-methyl-coumarin (AMC) groups using a VersaFluor™ Fluorometer with an excitation filter of 380 nm and an emission filter of 460 nm (Bio-Rad).

[2] = biological target: T1, proteasome chymotrypsin-like activity in living Jurkat cells (Homo sapiens, UniProt P28074); experiment: Proteasome chymotrypsin-like activity in living Jurkat T cells; assay type: cell-based
T1 construct: endogenous in cells; host or cells: Jurkat T cells (whole cell extract or intact cells)
Procedure: FIG. 10. Inhibition of the chymotrypsin-like activity by tannic acid in intact Jurkat T cells. Intact Jurkat T cells (1×10^5 cells/ml/well) are cultured in 24-well plates. These cells are first incubated for 12 h with various concentrations of tannic acid as indicated, followed by an additional 2 h-incubation with a fluorogenic peptide substrate, Suc-Leu-Leu-Val-Tyr-AMC for the chymotrypsin-like activity. Then, cell medium (200 μl per sample) is collected and used for measurement of free AMCs.
Inhibition of the proteasome activity in living cells by tea polyphenols—To measure inhibition of the chymotrypsin-like activity in living tumor cells, Jurkat T (1×10^5 cells/ml/well), MCF7 or PC-3 cells (1×10^4 cells/ml/well) are cultured in 24-well plates. These cells are first incubated for 12 h with various concentrations of EGCG, EGC, β-lactone or LLnL, followed by an additional 2 h-incubation with fluorogenic peptide substrates, Suc-Leu-Leu-Val-Tyr-AMC for the chymotrypsin-like activity and Z-Gly-Gly-Arg-AMC for the trypsin-like activity. After that, cell medium (200 μl per sample) is collected and used for measurement of free AMCs.

[3] = system: p27, IκB-α, ubiquitinated proteins, Bax in Jurkat T cells; experiment: Western blot of proteasome substrates in Jurkat T cells; assay type: cell-based, human; settings: for levels of p27: intact Jurkat T cells, 1 or 10 μM, 12 h
Procedure: FIG. 5. Western blot analysis. A, Jurkat T cells are treated with 1 or 10 μM of EGCG or EGC for 12 h, or B, C, 25 μM of EGCG for various times, followed by Western blot assay using specific antibodies to p27, IκB-α, ubiquitin or actin, as indicated. MWs of IκB-α and actin are 40 and 43 kDa, respectively. The band of 56 kDa, indicated by an arrow in (B), is an ubiquitinated or phosphorylated form of IκB-α. The bands indicated in (C) are ubiquitin-containing proteins. D, LNCaP cells are treated with 1 or 10 μM of EGCG for 12 h. Western bot is performed as described above. E, F, Jurkat T cells are pretreated with 10 μg/ml cycloheximide for 2 hr, followed by co-incubation with 1 or 10 μM of EGCG for 8 or 12 hr as indicated. The p70 is a putative ubiquitinated p27-containing complex (An et al., 1998, Cell Death Differ 5: 1062-75).
FIG. 11. Western blot assay. Western blot assay is performed using specific antibodies to p27^Kip, Bax, poly(ADP-ribose) polymerase (PARP), or actin. Jurkat T cells are treated with 50 μg/ml of tannic acid for 4, 12 or 24 h. Cells are harvested and lysated using the whole lysis buffer (50 mM Tris-HCl, pH 8.0, 5 mM EDTA, 150 mM NaCl, 0.5% NP-40, 0.5 mM PMSF, and 0.5 mM DTT). Cell lysates (70 μg) are separated on a sodium dodecyl sulfate-polyacrylamide gel electrophoresis (SDS-PAGE), followed by Western blot analysis.
Western blot analysis—Western blot assay is performed as described previously (An et al., (1998) Cell Death Differ 5(12), 1062-75) using specific antibodies to p27^Kip (monoclonal; Pharmingen), IκB-α (polyclonal; Santa Cruz), ubiquitin (polyclonal; Sigma) or actin (polyclonal; Santa Cruz). In brief, Jurkat T or LNCaP cells are treated with EGCG or EGC in dose-response or time-dependent manner. Cells are harvested and lysated using the whole lysis buffer. Cell lysates (70 μg) are separated by a sodium dodecyl sulfate-polyacrylamide gel electrophoresis (SDS-PAGE) and then, electrophoretically transferred to a nitrocellulose membrane. Immunocomplexes are detected using the ECL detection reagents kit (Amersham, Piscataway, N.J.).

[4] = Jurkat T cells, 25 μM EGCG, various times
[5] = cycloheximide-pretreated Jurkat T cells, 10 μM

chymotrypsin-like activity of purified 20S proteasome, sequence (Q9P992 whole entry): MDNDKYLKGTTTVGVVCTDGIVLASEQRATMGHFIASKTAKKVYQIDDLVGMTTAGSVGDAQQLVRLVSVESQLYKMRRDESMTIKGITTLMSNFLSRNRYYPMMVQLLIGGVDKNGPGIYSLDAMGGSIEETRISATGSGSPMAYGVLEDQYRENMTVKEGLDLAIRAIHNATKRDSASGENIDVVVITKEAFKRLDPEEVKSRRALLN

SMILES	IC50 ([1]; read-out: IC50 towards the chymotrypsin-like activity of purified 20S proteasome)	inhibition of chymotrypsin-like activity in living/intact Jurkat cells (in words) [2]	inhibition of chymotrypsin-like activity ([2]; 10 μM, living Jurkat cells)	IC50 ([2]; 12 h preincubation)	levels of IκB-α [3, 4]	levels of ubiquitinated proteins [3, 4]	levels of IκB protein [3, 5]	levels of p27 protein [3, 5]	level of p70 (putative ubiquitinated p27-containing protein) ([3]; cycloheximide-pretreated Jurkat T cells, co-incubation)	induction of IκB expression compared with LLnV ([3]; cycloheximide-pretreated Jurkat T cells, same concentration (10 μM))	levels of p27 [3]	fold less potent than EGCG ([1]; ratio of IC50 to EGCG)	inhibition of purified 20S proteasome chymotrypsin-like activity (in words) [1]	inhibition of chymotrypsin-like activity of the proteasome (in words) ([1]; tannic acid 0.3 μg/ml, glucose 180 μg/ml)	p27Kip and Bax levels ([3]; Jurkat T cells, tannic acid 50 μg/ml, 4, 12 or 24 h)
O=C(O[C@@H]1Cc2c(O)cc(O)cc2O[C@@H]1c1cc(O)c(O)c(O)c1)c1cc(O)c(O)c(O)c1 [EGCG, (−)-epigallocatechin-3-gallate]	0.086 µM	inhibitable	24%	18 µM	increases	increases	increases	dramatically increased	increase	even greater than that of the proteasome inhibitor LLnV	greatly increases				
Oc1cc(O)c2c(c1)O[C@H](c1cc(O)c(O)c(O)c1)[C@H](O)C2 [EGC, (−)-epigallocatechin]		much less effect									does not	14,000 fold			
O=C(OC[C@H]1O[C@@H](OC(=O)c2cc(O)c(O)c(OC(=O)c3cc(O)c(O)c(O)c3)c2)[C@H](OC(=O)c2cc(O)c(O)c(OC(=O)c3cc(O)c(O)c(O)c3)c2)[C@@H](OC(=O)c2cc(O)c(O)c(OC(=O)c3cc(O)c(O)c(O)c3)c2)[C@@H]1OC(=O)c1cc(O)c(O)c(OC(=O)c2cc(O)c(O)c(O)c2)c1)c1cc(O)c(O)c(OC(=O)c2cc(O)c(O)c(O)c2)c1 [tannic acid]		inhibition											concentration-dependent; also recorded: inhibited	inhibited	induction
